Test results taken from patent US10745365B2, “Luminogenic and fluorogenic compounds and methods to detect molecules or conditions” (Promega Corporation, priority 2005, dated 2020).

Test system: panel of recombinant human P450s
Assay: Two-step luminescent screen of luciferin derivatives against a panel of recombinant human P450s and HLM
Type: biochemical
Conditions: 50 μM substrate, panel of FIGS. 17-18
Protocol: P450s are Supersomes™ purchased from Discovery Labware (BD/Gentest). […] HLM is human liver microsomes.
1× substrate concentration: 50 μM.
The HLM reactions contained […] reaction, except where indicated otherwise. Control insect cell membranes were at 50 μg/50 μL.
For FIG. 20, the panel of human P450s was screened as described above.

## COc1ccc2nc(C3=NC(C(=O)OCc4cccnc4)CS3)sc2c1 (stereo not drawn)
  P450 enzyme activity / selectivity (words): preference for 2D6, 1A1 and 1A2

## 4-(O-methyl)-6-(O-methyl)-luciferin
  P450 enzyme activity / selectivity (words): enhanced selectivity for 1 A2, 2C8 and 2C9

## 4-methyl-6-(O-methyl)-luciferin
  P450 enzyme activity / selectivity (words): enhanced selectivity for 1 A2, 2C8 and 2C9
